From ChEMBL document CHEMBL1201862, “PubChem BioAssay data set” (2004)
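Tested at 5 concentrations; 48 h exposure; 96-well plates; endpoints linearly interpolated, else capped at highest concentration. GI50 is the concentration that inhibits growth by half.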 The source made the active and inactive calls. Rule as the data show it: active = GI50 up to about 1.1 µM and inactive = higher.

Legend:
Experiment in all cases: NCI tumour cell line growth inhibition, 48 h
CCRF-CEM = tested on: CCRF-CEM
SK-MEL-5 = tested on: SK-MEL-5
SF-268 = tested on: SF-268
OVCAR-5 = tested on: OVCAR-5
SK-MEL-28 = tested on: SK-MEL-28
786-0 = tested on: 786-0
KM12 = tested on: KM12
DU-145 = tested on: DU-145
SF-295 = tested on: SF-295
SR = tested on: SR
HCT-15 = tested on: HCT-15
UO-31 = tested on: UO-31
U-251 = tested on: U-251
CAKI-1 = tested on: CAKI-1
ACHN = tested on: ACHN
EKVX = tested on: EKVX
A549 = tested on: A549
SK-OV-3 = tested on: SK-OV-3
HT-29 = tested on: HT-29
UACC-62 = tested on: UACC-62
A498 = tested on: A498
SNB-19 = tested on: SNB-19
BT-549 = tested on: BT-549
MDA-N = tested on: MDA-N
UACC-257 = tested on: UACC-257
HOP-62 = tested on: HOP-62
OVCAR-4 = tested on: OVCAR-4
SF-539 = tested on: SF-539
IGROV-1 = tested on: IGROV-1
RPMI-8226 = tested on: RPMI-8226
COLO 205 = tested on: COLO 205
Hs-578T = tested on: Hs-578T
M14 = tested on: M14
NCI-H23 = tested on: NCI-H23
MOLT-4 = tested on: MOLT-4
SW-620 = tested on: SW-620
Malme-3M = tested on: Malme-3M
NCI-H522 = tested on: NCI-H522
PC-3 = tested on: PC-3
NCI-H226 = tested on: NCI-H226
TK-10 = tested on: TK-10
HCT-116 = tested on: HCT-116
HOP-92 = tested on: HOP-92
RXF 393 = tested on: RXF 393
MDA-MB-435 = tested on: MDA-MB-435
K562 = tested on: K562
NCI/ADR-RES = tested on: NCI/ADR-RES
OVCAR-3 = tested on: OVCAR-3
NCI-H460 = tested on: NCI-H460
SN12C = tested on: SN12C
HCC 2998 = tested on: HCC 2998
MCF7 = tested on: MCF7
HL-60 = tested on: HL-60
T47D = tested on: T47D
SNB-75 = tested on: SNB-75
SK-MEL-2 = tested on: SK-MEL-2
OVCAR-8 = tested on: OVCAR-8
MDA-MB-231 = tested on: MDA-MB-231
LOX IMVI = tested on: LOX IMVI

In the case of `CCCCCCCCOc1ccc(/C=C/C2=[N+](CCO)CCO2)cc1`, the GI50 (CCRF-CEM) is reported as 3.08 µM (inactive), the GI50 (SK-MEL-5) is reported as 2.56 µM (inactive) and the GI50 (SF-268) is reported as 5.27 µM (inactive). For the same compound, the GI50 (OVCAR-5) was 9.42 µM (inactive), the GI50 (SK-MEL-28) was 4.53 µM (inactive) and the GI50 (786-0) was 3.72 µM (inactive). The GI50 (KM12) was 3.27 µM (inactive), the GI50 (DU-145) was 5 µM (inactive) and the GI50 (SF-295) was 3.96 µM (inactive). The GI50 (SR) was 2.19 µM (inactive), the GI50 (HCT-15) was 12.1 µM and the GI50 (UO-31) was 12.3 µM (inactive). For the same compound, the GI50 (U-251) was 2.86 µM (inactive), the GI50 (CAKI-1) was 7.05 µM (inactive) and the GI50 (ACHN) was 3.69 µM (inactive). The GI50 (EKVX) was 3.94 µM (inactive), the GI50 (A549) was 2.7 µM (inactive) and the GI50 (SK-OV-3) was 2.54 µM (inactive). The GI50 (HT-29) was 2.4 µM (inactive), the GI50 (UACC-62) was 4.28 µM (inactive) and the GI50 (A498) was 2.9 µM (inactive). For the same compound, the GI50 (SNB-19) was 3.83 µM (inactive), the GI50 (BT-549) was 3.44 µM (inactive) and the GI50 (MDA-N) was 3.56 µM (inactive). The GI50 (UACC-257) was 3.38 µM (inactive), the GI50 (HOP-62) was 8.63 µM (inactive) and the GI50 (OVCAR-4) was 3.6 µM (inactive). For the same compound, the GI50 (SF-539) was 3.12 µM (inactive), the GI50 (IGROV-1) was 3.83 µM (inactive) and the GI50 (RPMI-8226) was 2.2 µM (inactive). For the same compound, the GI50 (COLO 205) was 2.42 µM (inactive), the GI50 (Hs-578T) was 3.53 µM (inactive) and the GI50 (M14) was 3.8 µM (inactive). For the same compound, the GI50 (NCI-H23) was 2.23 µM (inactive), the GI50 (MOLT-4) was 3.65 µM (inactive) and the GI50 (SW-620) was 2.43 µM (inactive). For the same compound, the GI50 (Malme-3M) was 3.04 µM (inactive), the GI50 (NCI-H522) was 2.02 µM (inactive) and the GI50 (PC-3) was 2.94 µM (inactive). For the same compound, the GI50 (NCI-H226) was 3.01 µM (inactive), the GI50 (TK-10) was 3.36 µM (inactive) and the GI50 (HCT-116) was 2.7 µM (inactive). For the same compound, the GI50 (HOP-92) was 2.34 µM (inactive), the GI50 (RXF 393) was 1.8 µM (inactive) and the GI50 (MDA-MB-435) was 3.52 µM (inactive). For the same compound, the GI50 (K562) was 2.07 µM (inactive), the GI50 (NCI/ADR-RES) was 12.6 µM (inactive) and the GI50 (OVCAR-3) was 3.15 µM (inactive). The GI50 (NCI-H460) was 3.07 µM (inactive), the GI50 (SN12C) was 3.18 µM (inactive) and the GI50 (HCC 2998) was 3.47 µM (inactive). For the same compound, the GI50 (MCF7) was 4.65 µM (inactive), the GI50 (HL-60) was 2.62 µM (inactive) and the GI50 (T47D) was 3.35 µM (inactive). For the same compound, the GI50 (SNB-75) was 2.67 µM (inactive), the GI50 (SK-MEL-2) was 2.3 µM (inactive) and the GI50 (OVCAR-8) was 3.14 µM (inactive). For the same compound, the GI50 (MDA-MB-231) was 3.78 µM (inactive).

`CCCCc1ccc(Nc2nc3c(ncn3C3OC(COC(C)=O)C(OC(C)=O)C3OC(C)=O)c(=O)[nH]2)cc1` (stereo not given) was tested, and the GI50 (CCRF-CEM) was 16.3 µM (inactive), the GI50 (SK-MEL-5) was 17.4 µM (inactive) and the GI50 (SF-268) was 19.4 µM (inactive). For the same compound, the GI50 (OVCAR-5) was 79.6 µM (inactive), the GI50 (786-0) was 17.2 µM (inactive) and the GI50 (KM12) was 18.4 µM (inactive). For the same compound, the GI50 (DU-145) was 31.3 µM (inactive), the GI50 (SF-295) was 21.2 µM (inactive) and the GI50 (SR) was 13.5 µM (inactive). The GI50 (HCT-15) was greater than 100 µM, the GI50 (UO-31) was > 100 µM (inactive) and the GI50 (U-251) was 21 µM (inactive). For the same compound, the GI50 (CAKI-1) was > 100 µM (inactive), the GI50 (ACHN) was 65 µM (inactive) and the GI50 (EKVX) was 36.7 µM (inactive). For the same compound, the GI50 (A549) was 92.7 µM (inactive), the GI50 (SK-OV-3) was 27 µM (inactive) and the GI50 (HT-29) was 19.1 µM (inactive). The GI50 (UACC-62) was 19 µM (inactive), the GI50 (A498) was > 100 µM (inactive) and the GI50 (SNB-19) was 27.7 µM (inactive). The GI50 (BT-549) was 17.8 µM (inactive), the GI50 (MDA-N) was 19.5 µM (inactive) and the GI50 (UACC-257) was 18.9 µM (inactive). The GI50 (HOP-62) was 17.8 µM (inactive), the GI50 (OVCAR-4) was 21.9 µM (inactive) and the GI50 (SF-539) was 26.2 µM (inactive). For the same compound, the GI50 (IGROV-1) was 17.5 µM (inactive), the GI50 (RPMI-8226) was 20.4 µM (inactive) and the GI50 (COLO 205) was 17.6 µM (inactive). For the same compound, the GI50 (Hs-578T) was 22.9 µM (inactive), the GI50 (M14) was 20.6 µM (inactive) and the GI50 (NCI-H23) was 17.4 µM (inactive). For the same compound, the GI50 (MOLT-4) was 18.7 µM (inactive), the GI50 (SW-620) was 25.1 µM (inactive) and the GI50 (Malme-3M) was 19.4 µM (inactive). The GI50 (NCI-H522) was 18 µM (inactive), the GI50 (PC-3) was 19.7 µM (inactive) and the GI50 (NCI-H226) was 21.1 µM (inactive). For the same compound, the GI50 (TK-10) was 45.3 µM (inactive), the GI50 (HCT-116) was 17.1 µM (inactive) and the GI50 (HOP-92) was 16.1 µM (inactive). For the same compound, the GI50 (RXF 393) was 19.1 µM (inactive), the GI50 (MDA-MB-435) was 19.9 µM (inactive) and the GI50 (LOX IMVI) was 18.5 µM (inactive). For the same compound, the GI50 (K562) was 15.1 µM (inactive), the GI50 (NCI/ADR-RES) was > 100 µM (inactive) and the GI50 (OVCAR-3) was 15.3 µM (inactive). The GI50 (NCI-H460) was 18.3 µM (inactive), the GI50 (SN12C) was 24.2 µM (inactive) and the GI50 (HCC 2998) was 20.7 µM (inactive). The GI50 (MCF7) was 23 µM (inactive), the GI50 (HL-60) was 26.2 µM (inactive) and the GI50 (T47D) was 13.7 µM (inactive). The GI50 (SK-MEL-2) was 15.7 µM (inactive), the GI50 (OVCAR-8) was 18.4 µM (inactive) and the GI50 (MDA-MB-231) was 16.7 µM (inactive).
